Marks after values point to notes of the source that are not given here.
System: Tau (AT100)
Experiment: Phosphorylation of Tau (AT100) in MAP-2 hippocampal neurons injured with Aβ1-42
Assay type: cell-based, rat
Conditions: for Area of Tau (AT100)/neurons (% of control): Aβ 1-42 (20 μM) 24 h; for concentration of maximal effect on Tau hyperphosphorylation: Aβ1-42 injured hippocampal neurons
Protocol: The hippocampal neurons were exposed with Aβ solutions (see below) after 17 days of culture. The Aβ1-42 preparation was done following the procedure described by Callizot et al. (2013) J. Neurosci. Res. 91706-716. Briefly, Aβ1-42 peptide was dissolved in the defined culture medium mentioned above, at an initial concentration of 40 μM. This solution was gently agitated for 3 days at 37° C. in the dark and immediately used after being properly diluted in culture medium to the concentrations used (20 μM (plate 1) or 2.5 μM (plate 2) corresponding to 2 μM or 0.25 μM of oligomers (AβO) respectively).
Donecopride fumarate was solved in culture medium and preincubated 1 h before Aβ application. Aβ1-42 preparation was added to a final concentration of 20 or 2.5 μM (=2 μM or 0.25 μM of AβO, evaluated by automatic Western Blot) diluted in control medium in presence of Donecopride.
24 hours after intoxication, the hippocampal neurons were fixed by a cold solution of ethanol (95%) and acetic acid (5%) for 5 min at −20° C. After permeabilization with 0.1% of saponin, cells were incubated for 2 h with:
b) mouse monoclonal antibody anti-phospho Tau (AT100) at dilution of 1/400 in PBS containing 1% fetal calf serum and 0.1% of saponin.
For each condition, 30 pictures (representative of the whole well area) per well were taken using ImageXpress (Molecular Devices) at 20× magnification. All images were taken with the same acquisition parameters. Analyses were performed automatically by using Custom Module Editor (Molecular Devices).
The following endpoints were assessed: • Total number of neurons (neuron survival, number of MAP-2 positive neurons) • Neurite network (in μm of MAP-2 positive neurons) • area of tau in neurons (μm^2, overlapping with MAP-2 positive neurons).
Injury: The hippocampal neurons were exposed with Aβ solutions (see below) after 17 days of culture. The Aβ1-42 preparation was done following the procedure described by Callizot et al. (2013) J. Neurosci. Res. 91:706-716. The batch number of the Aβ1-42 used in this study contains 10% of oligomers (quantification by WB as performed in Combes et al. (2015) J. Neurosci. Res. 93:633-643). Briefly, Aβ1-42 peptide was dissolved in the defined culture medium mentioned above, at an initial concentration of 40 μmol/1. This solution was gently agitated for 3 days at 37° C. in the dark and immediately used after being properly diluted in culture medium to the concentrations used (20 μmol/l or 2.5 μmol/l corresponding to 2 μmol/l or 0.25 μmol/l of oligomers (AβO) respectively). Aβ1-42 preparation was added to a final concentration of 20 or 2.5 μmol/l (respectively 2 μmol/l or 0.25 μmol/l of AβO, determined by automatic WB) diluted in control medium in presence of the compounds.
Immunostaining: MAP-2/AT100—After fixation and permeabilization, cells were incubated for 2 hours with: • a chicken polyclonal antibody anti microtubule-associated-protein 2 (MAP-2) at dilution of 1/1000 in PBS containing 1% fetal calf serum and 0.1% saponin (this antibody stains specifically cell bodies and neurites, allowing study of neuronal cell death and neurite network); and • a mouse monoclonal antibody anti-phospho Tau (AT100) at dilution of 1/100 in PBS containing 1% fetal calf serum and 0.1% saponin.
For each condition, 30 pictures (representative of the whole well area) per well were taken using ImageXpress® (Molecular Devices) with 20× magnification. All images were generated using the same acquisition parameters. From images, analyses were directly and automatically performed by Custom Module Editor® (Molecular Devices). The following read-outs were investigated: • Total number of neurons (neuron survival, number of MAP-2 positive neurons) • Neurite network (in μm of MAP-2 positive neurons) • Area of AT100 (μm^2, overlapping with MAP-2 positive neurons).

Q: Which “Area of Tau (AT100)/neurons (% of control)” value (“Area of Tau … (% of control)” below) (1 nM) does the source give for `COc1cc(N)c(Cl)cc1C(=O)CCC1CCN(CC2CCCCC2)CC1` [Donecopride] here?
A: 204 % of control

Q: What about the “Area of Tau … (% of control)” value (5 nM) of the same compound?
A: 201 % of control

Q: What about the “Area of Tau … (% of control)” value (10 nM) of the same compound?
A: 175 % of control

Q: And the “Area of Tau … (% of control)” value (50 nM)?
A: 161* % of control

Q: What about the “Area of Tau … (% of control)” value (100 nM) of the same compound?
A: 154* % of control

Q: And the “Area of Tau … (% of control)” value (500 nM)?
A: 152* % of control

Q: And the “Area of Tau … (% of control)” value (1 μM)?
A: 198 % of control

Q: Which “Area of Tau … (% of control)” value (1 μM) does the source give for `COc1cc2c(cc1OC)C(=O)C(CC1CCN(Cc3ccccc3)CC1)C2` (stereo not shown) [Donepezil, reference compound] here?
A: 151* % of control

Q: How did the “concentration of maximal effect on Tau hyperphosphorylation” value turn out when `COc1cc(N)c(F)cc1C(=O)CCC1CCN(CC2CCCCC2)CC1` [Flucopride] was run?
A: 50 nM

Q: With `COc1cc(N)c(F)cc1C(=O)CCC1CCN(CC2CCCC2)CC1` [MR33583] as the compound, how does the “concentration of maximal effect on Tau hyperphosphorylation” value read?
A: 50 to 100 nM

From patent publication US20220031680A1, “Donecopride As Neuroprotective Agent In the Treatment of Neurodegenerative Diseases” (priority 2018, published 2022)
